Experimental data as given in patent US11795152B2, “Crystal form of tafamidis and preparation method therefor and use thereof” (CRYSTAL PHARMACEUTICAL (SUZHOU) CO., LTD., priority 2019, dated 2023).

What was measured:
Format in all cases: physicochemical
[1] = Stability of Form CSVII drug product on storage; conditions: 30° C./60% RH
[2] = Hygroscopicity by dynamic vapor sorption (DVS); conditions: 80% RH, 25° C., DVS
Protocol: Dynamic Vapor Sorption (DVS) is measured via a SMS (Surface Measurement Systems Ltd.) intrinsic DVS instrument. Its control software is DVS-Intrinsic control software. Typical parameters for DVS tests are as follows:
Gas and flow rate: N2, 200 mL/min
RH range: 0% RH to 95% RH
The weight gains at each relative humidity were recorded in a cycle of 0-95%-0 RH. The XRPD patterns were collected before and after the DVS test and depicted in FIG. 11.
Description and definition of hygroscopicity (general notice 9103 drug hygroscopicity test guidelines in 2015 edition of Chinese Pharmacopoeia, test at 25° C.+/−1° C., 80% RH. The definition of hygroscopicity in the 9th European Pharmacopoeia 5.11 is in consistent with the Chinese Pharmacopoeia.). • deliquescent: sufficient water is absorbed to form a solution. • very hygroscopic: increase in mass is equal to or greater than 15 percent. • hygroscopic: increase in mass is less than 15 percent and equal to or greater than 2 percent. • slightly hygroscopic: increase in mass is less than 2 percent and equal to or greater than 0.2 percent. • non hygroscopic or almost non hygroscopic: Increase in mass is less than 0.2%.
The weight gains at each relative humidity were recorded in a cycle of 0-95%-0RH. The XRPD patterns were collected before and after the DVS test and depicted in FIG. 22. […] Form CSVI is slightly hygroscopic.
The weight gains at each relative humidity were recorded in a cycle of 0-95%-0RH. The XRPD patterns were collected before and after the DVS test and depicted in FIG. 31.

[3] = Compressibility (manual tablet press, tensile strength); conditions: 80 mg, φ6 mm round tooling, 10 KN
Protocol: An ENERPAC manual tablet press was used for tableting. […] Diameter (D) and thickness (L) were tested with a caliper. Hardness (H) was tested with an intelligent tablet hardness tester. Tensile strength of the powder was calculated with the following formula: T=2H/πDL*9.8. Under a certain force, the greater the tensile strength, the better the compressibility.
Diameter (D) and thickness (L) were tested with a caliper. Hardness (H) was tested with an intelligent tablet hardness tester. Tensile strength of the powder was calculated with the following formula: T=2H/πDL*9.8. Under a certain force, the greater the tensile strength, the better the compressibility.

[4] = Dissolution profile of tablets in pH6.8 PBS+1% Tween 80; conditions: tablet 61 mg, paddle 75 rpm, 37° C.
Protocol: The cumulative dissolution was measured at different time in pH6.8 PBS+1% Tween 80 and pH6.8 PBS+3% Tween 80. The dissolution results are presented in Table 24 (FIG. 23) and Table 25 (FIG. 24).
The cumulative dissolution was measured at different time in pH6.8 PBS+1% Tween 80.

[5] = Adhesiveness (material sticking to the punch); conditions: 30 mg, φ8 mm round tooling, 10 KN held for 30 s
Protocol: The punch was weighed and amount of material sticking to the punch was calculated. The compression was repeated twice and the cumulative amount, maximum amount and average amount of material sticking to the punch during the compression were recorded.

[6] = Stability of drug substance on storage (XRPD, HPLC purity); conditions: for chemical purity during storage: drug substance
From the text: Crystalline form and chemical impurity were checked by XRPD and HPLC, respectively.
Crystalline form and purity were checked by XRPD and HPLC, respectively.

[7] = 40° C./75% RH, Sealed, 3 months
[8] = 60° C./75% RH, Sealed, 2 months

- time for which crystalline state of drug product doesn't change [1]: at least three months
- Weight gain [2]: 0.04%
- Hardness ([3]; 24 hours recovery): 7.45 kgf
- Tensile strength ([3]; T=2H/πDL*9.8): 4.02 MPa
- Cumulative drug release in pH 6.8 PBS + 1% Tween 80 (%) ([4]; 0 min): 0.0%
- Cumulative drug release in pH 6.8 PBS + 1% Tween 80 (%) ([4]; 5 min): 9.3%
- Cumulative drug release in pH 6.8 PBS + 1% Tween 80 (%) ([4]; 10 min): 15.2%
- Cumulative drug release in pH 6.8 PBS + 1% Tween 80 (%) ([4]; 15 min): 19.7%
- Cumulative drug release in pH 6.8 PBS + 1% Tween 80 (%) ([4]; 20 min): 23.5%
- Cumulative drug release in pH 6.8 PBS + 1% Tween 80 (%) ([4]; 30 min): 29.8%
- Cumulative drug release in pH 6.8 PBS + 1% Tween 80 (%) ([4]; 45 min): 37.4%
- Cumulative drug release in pH 6.8 PBS + 1% Tween 80 (%) ([4]; 60 min): 43.7%
- Cumulative drug release in pH 6.8 PBS + 1% Tween 80 (%) ([4]; 90 min): 52.8%
- Cumulative drug release in pH 6.8 PBS + 1% Tween 80 (%) ([4]; 120 min): 60.1%
- Cumulative drug release in pH 6.8 PBS + 1% Tween 80 (%) ([4]; 150 min): 68.3%
- Average amount (mg) of material sticking to the punch [5]: 0.200 mg
- Purity ([6]; 25° C./60% RH, Open, 3 months): 99.92%
- Solid Form ([6]; 25° C./60% RH, Open, 3 months): Form CSVII
- Purity ([6]; 40° C./75% RH, Open, 3 months): 99.92%
- Solid Form ([6]; 40° C./75% RH, Open, 3 months): Form CSVII
- Purity [6, 7]: 99.92%
- Solid Form [6, 7]: Form CSVII
- Purity [6, 8]: 99.93%
- Solid Form [6, 8]: Form CSVII
- Purity ([6]; Initial): 99.93%
- Solid Form ([6]; Initial): Form CSVII
- chemical purity during storage ([6]; 25° C./60% RH): above 99.9%
- chemical purity during storage ([6]; 40° C./75% RH and 60° C./75% RH): above 99.9%
SMILES: O=C(O)CCCCC(=O)O.O=C(O)c1ccc2nc(-c3cc(Cl)cc(Cl)c3)oc2c1.O=C(O)c1ccc2nc(-c3cc(Cl)cc(Cl)c3)oc2c1 [Form CSVII]
